Laboratory results published in patent US20140213513A1 (Sanofi, priority 2012, published 2014).
*1 amine or outer side, *2 acyl side, *3 side chain or, on linkers, in order; H or OH if unused. Where a SMILES comes first, the peptide text is derived from it. Side-chain parts run from the residue outwards. [ ]: non-standard residue; d: D form. The star is where a group is joined. γGlu = O=C(O)[C@H](CCC(=O)[*:2])N[*:1]; Stearoyl = CCCCCCCCCCCCCCCCCC(=O)*; Palmitoyl = CCCCCCCCCCCCCCCC(=O)*; Aib = CC(C)(N)C(=O)O

Assays:
Format in all cases: cell-based
Settings in all cases: Table 7; cAMP formation
[1] = molecular target: T1, human GLP-1 receptor (hGLP-1 R) (Homo sapiens, UniProt P43220); test: cAMP response of HEK-293 cells stably expressing human GLP-1 receptor (HTRF)
T1 construct: expressed in transfected cells
T1 sequence (P43220 24-463): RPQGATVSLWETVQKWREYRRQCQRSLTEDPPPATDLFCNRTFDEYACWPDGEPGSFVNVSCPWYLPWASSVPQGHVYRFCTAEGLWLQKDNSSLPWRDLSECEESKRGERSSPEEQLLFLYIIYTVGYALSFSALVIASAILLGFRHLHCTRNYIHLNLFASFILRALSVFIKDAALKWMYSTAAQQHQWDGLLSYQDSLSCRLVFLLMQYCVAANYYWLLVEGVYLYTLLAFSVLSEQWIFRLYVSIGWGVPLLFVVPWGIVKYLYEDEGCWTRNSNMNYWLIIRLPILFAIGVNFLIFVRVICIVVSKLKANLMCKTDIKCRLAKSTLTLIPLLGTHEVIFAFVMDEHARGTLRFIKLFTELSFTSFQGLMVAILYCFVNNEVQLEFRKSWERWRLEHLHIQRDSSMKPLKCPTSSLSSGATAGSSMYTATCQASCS
How it was run: (§1)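 Intracellular cAMP is quantified by HTRF following a 30-minute room-temperature incubation of cell suspensions (400000 cells/ml) with test compound in HBSS, 20 mM HEPES, 0.1% BSA and 2 mM IBMX.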

[2] = molecular target: T2, human glucagon receptor (hGLUC R) (Homo sapiens, UniProt P47871); test: cAMP response of HEK-293 cells stably expressing human glucagon receptor (HTRF)
T2 construct: expressed in transfected cells
T2 sequence (P47871 26-477): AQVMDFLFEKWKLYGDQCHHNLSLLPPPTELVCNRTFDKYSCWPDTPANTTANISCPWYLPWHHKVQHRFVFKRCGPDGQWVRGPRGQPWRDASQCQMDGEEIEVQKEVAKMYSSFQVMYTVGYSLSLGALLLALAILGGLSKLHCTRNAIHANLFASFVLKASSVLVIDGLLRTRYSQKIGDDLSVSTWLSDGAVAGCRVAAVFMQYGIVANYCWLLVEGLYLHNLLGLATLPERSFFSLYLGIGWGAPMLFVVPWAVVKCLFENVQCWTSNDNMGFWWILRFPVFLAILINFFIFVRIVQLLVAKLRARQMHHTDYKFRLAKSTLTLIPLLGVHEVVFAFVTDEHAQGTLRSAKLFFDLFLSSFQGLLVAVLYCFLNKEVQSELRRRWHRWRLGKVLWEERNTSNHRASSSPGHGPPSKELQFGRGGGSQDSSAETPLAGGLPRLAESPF
How it was run: as §1

[3] = molecular target: T3, human GIP receptor (hGIP R) (Homo sapiens, UniProt P48546); test: cAMP response of HEK-293 cells stably expressing human GIP receptor (HTRF)
T3 construct: expressed in transfected cells
T3 sequence (P48546 22-466): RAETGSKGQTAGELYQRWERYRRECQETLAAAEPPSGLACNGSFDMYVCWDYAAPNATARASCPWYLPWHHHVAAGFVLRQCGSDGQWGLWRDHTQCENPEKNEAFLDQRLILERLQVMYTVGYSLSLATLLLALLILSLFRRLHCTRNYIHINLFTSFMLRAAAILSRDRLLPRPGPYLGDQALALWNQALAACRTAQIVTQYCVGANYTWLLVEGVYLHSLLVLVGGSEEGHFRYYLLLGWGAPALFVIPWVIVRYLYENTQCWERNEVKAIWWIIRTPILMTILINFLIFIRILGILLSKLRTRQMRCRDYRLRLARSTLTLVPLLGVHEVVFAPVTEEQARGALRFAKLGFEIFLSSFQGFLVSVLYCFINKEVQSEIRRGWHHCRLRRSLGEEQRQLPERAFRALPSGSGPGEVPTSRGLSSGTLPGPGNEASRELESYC
How it was run: as §1

SMILES	EC50 [1] [nM]	EC50 [2] [nM]	EC50 [3] [nM]
CCCCCCCCCCCCCCCC(=O)N[C@@H](CCC(=O)NCCCC[C@H](NC(=O)[C@H](CCC(N)=O)NC(=O)[C@@H](NC(=O)[C@H](CO)NC(=O)[C@H](CC(C)C)NC(=O)[C@H](CC(=O)O)NC(=O)[C@H](CO)NC(=O)[C@@H](NC(=O)[C@H](Cc1ccccc1)NC(=O)[C@@H](NC(=O)CNC(=O)[C@H](CCC(=O)O)NC(=O)C(C)(C)NC(=O)[C@@H](N)Cc1ccc(O)cc1)[C@@H](C)O)[C@@H](C)O)[C@@H](C)CC)C(=O)N[C@@H](CCC(=O)O)C(=O)N[C@@H](CCCCN)C(=O)N[C@@H](CCCNC(=N)N)C(=O)N[C@@H](C)C(=O)N[C@@H](C)C(=O)N[C@@H](Cc1c[nH]cn1)C(=O)N[C@@H](CCC(=O)O)C(=O)N[C@@H](Cc1ccccc1)C(=O)N[C@H](C(=O)N[C@@H](CCC(=O)O)C(=O)N[C@@H](Cc1c[nH]c2ccccc12)C(=O)N[C@@H](CC(C)C)C(=O)N[C@@H](CCCCN)C(=O)N[C@@H](CC(N)=O)C(=O)N[C@H](C(=O)NCC(=O)N1CCC[C@H]1C(=O)N[C@@H](CO)C(=O)N[C@@H](CO)C(=O)NCC(=O)N[C@@H](C)C(=O)N1CCC[C@H]1C(=O)N1CCC[C@H]1C(=O)N1CCC[C@H]1C(=O)N[C@@H](CO)C(N)=O)[C@@H](C)O)[C@@H](C)CC)C(=O)O [SEQ ID NO: 59, Y-Aib-E-G-T-F-T-S-D-L-S-I-Q-K(yE-x53)-EKRAAHEFIEWLKNTGPSSGAPPPS-NH2] (H-Y[Aib]EGTFTSDLSIQK([γGlu-Palmitoyl])EKRAAHEFIEWLKNTGPSSGAPPPS-NH2)	0.0075	12.3	0.0175
CCCCCCCCCCCCCCCCCC(=O)N[C@@H](CCC(=O)NCCCC[C@H](NC(=O)[C@H](CCC(N)=O)NC(=O)[C@@H](NC(=O)[C@H](CO)NC(=O)[C@H](CC(C)C)NC(=O)[C@H](CC(=O)O)NC(=O)[C@H](CO)NC(=O)[C@@H](NC(=O)[C@H](Cc1ccccc1)NC(=O)[C@@H](NC(=O)CNC(=O)[C@H](CCC(=O)O)NC(=O)C(C)(C)NC(=O)[C@@H](N)Cc1ccc(O)cc1)[C@@H](C)O)[C@@H](C)O)[C@@H](C)CC)C(=O)N[C@@H](CCC(=O)O)C(=O)N[C@@H](CCC(=O)O)C(=O)N[C@@H](CCC(=O)O)C(=O)N[C@@H](C)C(=O)N[C@H](C(=O)N[C@@H](CCCCN)C(=O)N[C@@H](CC(C)C)C(=O)N[C@@H](Cc1ccccc1)C(=O)N[C@H](C(=O)N[C@@H](CCC(=O)O)C(=O)N[C@@H](Cc1c[nH]c2ccccc12)C(=O)N[C@@H](CC(C)C)C(=O)N[C@@H](CCCCN)C(=O)N[C@@H](C)C(=O)NCC(=O)NCC(=O)N1CCC[C@H]1C(=O)N[C@@H](CO)C(=O)N[C@@H](CO)C(=O)NCC(=O)N[C@@H](C)C(=O)N1CCC[C@H]1C(=O)N1CCC[C@H]1C(=O)N1CCC[C@H]1C(=O)N[C@@H](CO)C(N)=O)[C@@H](C)CC)C(C)C)C(=O)O [SEQ ID NO: 62, Y-Aib-E-G-T-F-T-S-D-L-S-I-Q-K(yE-x70)-EEEAVKLFIEWLKAGGPSSGAPPPS-NH2] (H-Y[Aib]EGTFTSDLSIQK([γGlu-Stearoyl])EEEAVKLFIEWLKAGGPSSGAPPPS-NH2)	0.0076	> 1000	0.0067
CCCCCCCCCCCCCCCC(=O)N[C@@H](CCC(=O)NCCCC[C@H](NC(=O)[C@H](CCC(N)=O)NC(=O)[C@@H](NC(=O)[C@H](CO)NC(=O)[C@H](CC(C)C)NC(=O)[C@H](CC(=O)O)NC(=O)[C@H](CO)NC(=O)[C@@H](NC(=O)[C@H](Cc1ccccc1)NC(=O)[C@@H](NC(=O)CNC(=O)[C@H](CCC(N)=O)NC(=O)C(C)(C)NC(=O)[C@@H](N)Cc1ccc(O)cc1)[C@@H](C)O)[C@@H](C)O)[C@@H](C)CC)C(=O)N[C@@H](CC(=O)O)C(=O)N[C@@H](CO)C(=O)N[C@@H](CCCNC(=N)N)C(=O)N[C@@H](CCCNC(=N)N)C(=O)N[C@@H](C)C(=O)N[C@@H](CCC(N)=O)C(=O)N[C@@H](CC(=O)O)C(=O)N[C@@H](Cc1ccccc1)C(=O)N[C@H](C(=O)N[C@@H](CCC(=O)O)C(=O)N[C@@H](Cc1c[nH]c2ccccc12)C(=O)N[C@@H](CC(C)C)C(=O)N[C@@H](CCCCN)C(=O)N[C@@H](C)C(=O)NCC(=O)NCC(=O)N1CCC[C@H]1C(=O)N[C@@H](CO)C(=O)N[C@@H](CO)C(=O)NCC(=O)N[C@@H](C)C(=O)N1CCC[C@H]1C(=O)N1CCC[C@H]1C(=O)N1CCC[C@H]1C(=O)N[C@@H](CO)C(N)=O)[C@@H](C)CC)C(=O)O [SEQ ID NO: 52, Y-Aib-Q-G-T-F-T-S-D-L-S-I-Q-K(yE-x53)-DSRRAQDFIEWLKAGGPSSGAPPPS-NH2] (H-Y[Aib]QGTFTSDLSIQK([γGlu-Palmitoyl])DSRRAQDFIEWLKAGGPSSGAPPPS-NH2)	0.0256	0.0133	0.182
CCCCCCCCCCCCCCCCCC(=O)N[C@@H](CCC(=O)NCCCC[C@H](NC(=O)[C@H](CCC(N)=O)NC(=O)[C@H](CCCCN)NC(=O)[C@H](CO)NC(=O)[C@H](CC(C)C)NC(=O)[C@H](CC(=O)O)NC(=O)[C@H](CO)NC(=O)[C@@H](NC(=O)[C@H](Cc1ccccc1)NC(=O)[C@@H](NC(=O)CNC(=O)[C@H](CCC(N)=O)NC(=O)C(C)(C)NC(=O)[C@@H](N)Cc1ccc(O)cc1)[C@@H](C)O)[C@@H](C)O)C(=O)N[C@@H](CC(=O)O)C(=O)N[C@@H](CO)C(=O)N[C@@H](CCCCN)C(=O)N[C@@H](C)C(=O)N[C@@H](C)C(=O)N[C@@H](CCC(N)=O)C(=O)N[C@@H](CC(=O)O)C(=O)N[C@@H](Cc1ccccc1)C(=O)N[C@H](C(=O)N[C@@H](CCC(=O)O)C(=O)N[C@@H](Cc1c[nH]c2ccccc12)C(=O)N[C@@H](CC(C)C)C(=O)N[C@@H](CCCCN)C(=O)N[C@@H](C)C(=O)NCC(=O)NCC(=O)N1CCC[C@H]1C(=O)N[C@@H](CO)C(=O)N[C@@H](CO)C(=O)NCC(=O)N[C@@H](C)C(=O)N1CCC[C@H]1C(=O)N1CCC[C@H]1C(=O)N1CCC[C@H]1C(=O)N[C@@H](CO)C(N)=O)[C@@H](C)CC)C(=O)O [SEQ ID NO: 41, Y-Aib-Q-G-T-F-T-S-D-L-S-K-Q-K(yE-x70)-DSKAAQDFIEWLKAGGPSSGAPPPS-NH2] (H-Y[Aib]QGTFTSDLSKQK([γGlu-Stearoyl])DSKAAQDFIEWLKAGGPSSGAPPPS-NH2)	0.0241	0.0265	0.186
CCCCCCCCCCCCCCCC(=O)N[C@@H](CCC(=O)NCCCC[C@H](NC(=O)[C@H](CCC(N)=O)NC(=O)[C@H](CCCCN)NC(=O)[C@H](CO)NC(=O)[C@H](CC(C)C)NC(=O)[C@H](CC(=O)O)NC(=O)[C@H](CO)NC(=O)[C@@H](NC(=O)[C@H](Cc1ccccc1)NC(=O)[C@@H](NC(=O)CNC(=O)[C@H](CCC(=O)O)NC(=O)C(C)(C)NC(=O)[C@@H](N)Cc1ccc(O)cc1)[C@@H](C)O)[C@@H](C)O)C(=O)N[C@@H](CC(=O)O)C(=O)N[C@@H](CCCCN)C(=O)N[C@@H](CCCNC(=N)N)C(=O)N[C@@H](C)C(=O)N[C@@H](C)C(=O)N[C@@H](CCC(N)=O)C(=O)N[C@@H](CC(=O)O)C(=O)N[C@@H](Cc1ccccc1)C(=O)N[C@H](C(=O)N[C@@H](CCC(=O)O)C(=O)N[C@@H](Cc1c[nH]c2ccccc12)C(=O)N[C@@H](CC(C)C)C(=O)N[C@@H](CCCCN)C(=O)N[C@@H](CC(N)=O)C(=O)NCC(=O)NCC(=O)N1CCC[C@H]1C(=O)N[C@@H](CO)C(=O)N[C@@H](CO)C(=O)NCC(=O)N[C@@H](C)C(=O)N1CCC[C@H]1C(=O)N1CCC[C@H]1C(=O)N1CCC[C@H]1C(=O)N[C@@H](CO)C(N)=O)[C@@H](C)CC)C(=O)O [SEQ ID NO: 30, Y-Aib-E-G-T-F-T-S-D-L-S-K-Q-K(yE-x53)-DKRAAQDFIEWLKNGGPSSGAPPPS-NH2] (H-Y[Aib]EGTFTSDLSKQK([γGlu-Palmitoyl])DKRAAQDFIEWLKNGGPSSGAPPPS-NH2)	0.005	1.45	0.0163
